“Also recorded” adds a separate entry of the source.
Legend:
[1] = target: T1, GLI3-TAFbd peptide / TAFII31 protein (Homo sapiens, UniProt Q16594); experiment: Co-immunoprecipitation of GLI-TAFbd peptide and TAFII31; format: binding
T1 construct: The full-length TAFII31 cDNA insert cloned into the (c-myc-tag)pCDNA3.1 expression vector was used as template; made in house; host or cells: cell-free: TNT quick coupled transcription/translation system (Promega)
Protocol: (§1) The binding between GLI-TAF binding domain peptides (GLI-TAFbd) and TAFII31 protein was quantified by measuring the intensity of each band of an co-immunoprecipitation experiments with arbitrary unit. The binding after DMSO treatment was set to 100% for each GLI-TAFbd peptide. The binding was interfered by FN1-8 in dose-dependent manner: the binding for GLI1-TAFbd was 73.6% and 33.5%, for GLI2-TAFbd was 73.8% and 60%, for GLI3-TAFbd was 71.6% and 28.6%, after treatment with 20 μM and 50 μM FN1-8, respectively. Details are described in Example 35.
(§2) Specifically for this experiment, biotinylated TAF binding domain of GLI proteins, GLI1, GLI2, and GLI3 (see below) were custom synthesized at Genemed Synthesis, Inc. The GLI-TAF binding domain (GLI-TAFbd) peptide sequences were as follows;
(§3) TAFII31 proteins were prepared by using the TNT quick coupled transcription/translation systems (Promega) according to the manufacturer's protocol. The full-length TAFII31 cDNA insert cloned into the (c-myc-tag)pCDNA3.1 expression vector was used as template in this in vitro translation system. An empty (c-myc-tag)pCDNA3.1 expression vector was used as a control. The biotinylated GLI peptides (i.e., the TAF binding domains of three different GLI proteins) were incubated with the TAFII31 protein in the presence or absence of small molecule compound FN1-8 (at 20 μM and 50 μM). Then the biotinylated GLI-peptide-TAFII31 complexes were precipitated with streptavidine agarose followed by immunoblotting with an anti-c-myc antibody (A-14; Santa Cruz Biotech, Inc.; Cao et al., 2001, Science 293:115-120). […] As a control, there was no pull-down of TAFII31 by all three GLI peptides when the empty (c-myc-tag)pCDNA3.1 expression vector was used in in vitro translation system (FIG. 23).

[2] = target: T2, GLI1-TAFbd peptide / TAFII31 protein (Homo sapiens, UniProt Q16594); experiment: as above; format: binding
T2 construct: The full-length TAFII31 cDNA insert cloned into the (c-myc-tag)pCDNA3.1 expression vector was used as template; made in house; host or cells: cell-free: TNT quick coupled transcription/translation system (Promega)
Protocol: as §1, §2, §3

[3] = target: T3, GLI2-TAFbd peptide / TAFII31 protein (Homo sapiens, UniProt Q16594); experiment: as above; format: binding
T3 construct: The full-length TAFII31 cDNA insert cloned into the (c-myc-tag)pCDNA3.1 expression vector was used as template; made in house; host or cells: cell-free: TNT quick coupled transcription/translation system (Promega)
Protocol: as §1, §2, §3

[4] = system: GLI1-induced transcription in melanoma cell lines Malme-3M, A375, SK-Mel-2, SK-Mel-5; experiment: 6xGLI BS-luciferase reporter assay; format: cell-based, human; details: 20 μM, 16-20 hours
Protocol: One day before transfection, cells (1×10^5) were plated in 12-well plates with growth medium without antibiotics. When cells reached 80-90% of confluence they were co-transfected using 0.5 μg of each promoter construct in pGL3Basic vector and 0.025 μg pRL-TK Vector (Promega; Madison, Wis.) containing Renilla Luciferase as an internal control for the transformation efficiency. Lipofectamine 2000™ (Invitrogen Life Technologies) was used to mediate transfection for about 6 hours. […] Briefly, cells were lysed in a lysis buffer and Firefly and Renilla Luciferase activities in cells of each well, were measured using Dual-Luciferase Assay System (Promega) and an illuminometer. The measured luciferase activities were normalized to pRL-TK Vector activity and were given relative to the basal activity of empty pGL3-Basic Vector, which was set to unity. The data shown represent mean values (±S.D.). All measurements were performed in triplicate and repeated in at least three independent experiments. The human Wnt-2 promoter-luciferase construct, the human SOCS3 promoter-Luciferase construct and the human Gremlin promoter-luciferase construct were cloned and characterized in the laboratory of Dr. Jablons at the University of California, San Francisco (San Francisco, Calif.; He et al., Biochem Biophy Res Comm, 2003; and unpublished data). […]

T2 sequence (Q16594 whole entry): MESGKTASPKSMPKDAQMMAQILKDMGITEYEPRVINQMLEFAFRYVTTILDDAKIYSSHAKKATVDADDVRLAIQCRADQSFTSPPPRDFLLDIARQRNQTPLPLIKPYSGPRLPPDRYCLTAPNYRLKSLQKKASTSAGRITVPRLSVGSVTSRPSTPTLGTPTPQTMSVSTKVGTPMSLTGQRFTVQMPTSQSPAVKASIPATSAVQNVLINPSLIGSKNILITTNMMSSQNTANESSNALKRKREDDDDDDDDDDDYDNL
T3 sequence (Q16594 whole entry): as above
T1 sequence (Q16594 whole entry): as above

binding of GLI3-TAFbd to TAFII31 (DMSO = 100%) ([1]; 20 μM): 71.6% | binding of GLI3-TAFbd to TAFII31 (DMSO = 100%) ([1]; 50 μM): 28.6% | binding of GLI1-TAFbd to TAFII31 (DMSO = 100%) ([2]; 20 μM): 73.6% | binding of GLI1-TAFbd to TAFII31 (DMSO = 100%) ([2]; 50 μM): 33.5% | binding of GLI2-TAFbd to TAFII31 (DMSO = 100%) ([3]; 20 μM): 73.8% | binding of GLI2-TAFbd to TAFII31 (DMSO = 100%) ([3]; 50 μM): 60%
Structure (SMILES): O=C(NCCc1ccc(O)cc1)C1C(c2ccccc2)=NN(c2ccccc2)C1c1ccccc1 (stereo not shown) [FN1-8, N-(2-(4-Hydroxyphenyl)ethyl)-1,3,5-triphenyl-4,5-dihydro-pyrazole-4-carboxyamide]
6xGLI BS-luciferase activity (GLI1-induced) [4]: significantly reduced level of luciferase activity; also recorded: down-regulates GLI1-induced transcription activity

— patent publication US7714014B2, “Targeting GLI proteins in human cancer by small molecules” (The Regents of the University of California, priority 2005, dated 2010)
